# Reference: US10376520B2, “Methods for the treatment of cardiovascular disorders” (Galapagos NV, priority 2015, dated 2019)
# Tested on: RA patients
# Assay: Atherogenic index, Study 1 (RA patients, add-on to MTX)
# Type: in vivo, human
# Experimental: As used herein, the term ‘atherogenic index’ refers to
# Double-blind, placebo-controlled add on study in subjects with moderately to severely active RA who have an inadequate response to methotrexate (MTX) (oral or parenteral).
# Compound 1 (dosed as a [Compound 1:HCl:3H2O]) is dosed for twelve weeks once daily (q.d.) (50 mg, 100 mg or 200 mg) or twice daily (b.i.d.) (25 mg, 50 mg or 100 mg); or placebo.
# At Week 12, the subjects on placebo who have not achieved 20% improvement in swollen joint count (SJC66) and tender joint count (TJC68) are re-randomized automatically to receive Compound 1 (dosed as a [Compound 1:HCl:3H2O]) either at 100 mg q.d. or 50 mg b.i.d. doses in a blinded fashion; subjects on 50 mg q.d. who have not achieved 20% improvement in SJC66 and TJC68 will be assigned to 100 mg q.d. and subjects on 25 mg b.i.d. that have not achieved a 20% improvement in SJC66 and TJC68 will be assigned to 50 mg b.i.d. Subjects who switch treatment at week 12 are handled as if they discontinued at week 12 for the purpose of statistical analysis, whereas subjects in the other groups will maintain their randomized treatment until Week 24.
# The atherogenic index has been identified to be a good predictor of cardiovascular disorders risks and is calculated as follows: […]
# [1] = 25 mg b.i.d continued over 24 weeks, week 1
# [2] = 25 mg b.i.d continued over 24 weeks, week 2
# [3] = 25 mg b.i.d continued over 24 weeks, week 4
# [4] = 25 mg b.i.d continued over 24 weeks, week 8
# [5] = 25 mg b.i.d continued over 24 weeks, week 12
# [6] = 25 mg b.i.d continued over 24 weeks, week 16
# [7] = 25 mg b.i.d continued over 24 weeks, week 20
# [8] = 25 mg b.i.d continued over 24 weeks, week 24
# [9] = 50 mg b.i.d. continued over 24 weeks, week 1
# [10] = 50 mg b.i.d. continued over 24 weeks, week 2
# [11] = 50 mg b.i.d. continued over 24 weeks, week 4
# [12] = 50 mg b.i.d. continued over 24 weeks, week 8
# [13] = 50 mg b.i.d. continued over 24 weeks, week 12
# [14] = 50 mg b.i.d. continued over 24 weeks, week 16
# [15] = 50 mg b.i.d. continued over 24 weeks, week 20
# [16] = 50 mg b.i.d. continued over 24 weeks, week 24
# [17] = 50 mg q.d. continued over 24 weeks, week 1
# [18] = 50 mg q.d. continued over 24 weeks, week 2
# [19] = 50 mg q.d. continued over 24 weeks, week 4
# [20] = 50 mg q.d. continued over 24 weeks, week 8
# [21] = 50 mg q.d. continued over 24 weeks, week 12
# [22] = 50 mg q.d. continued over 24 weeks, week 16
# [23] = 50 mg q.d. continued over 24 weeks, week 20
# [24] = 50 mg q.d. continued over 24 weeks, week 24
smiles,measurement,setting,value
"O=C(Nc1nc2cccc(-c3ccc(CN4CCS(=O)(=O)CC4)cc3)n2n1)C1CC1 [Compound 1, cyclopropanecarboxylic acid {5-[4-(1,1-dioxo-thiomorpholin-4-ylmethyl)-phenyl]-[1,2,4]triazolo[1,5-a]pyridin-2yl}-amide]",Atherogenic index Mean CFB - 24 weeks results,[1],0.08 mmol/L
same,Atherogenic index Mean percentage CFB - 24 weeks results,[1],2.78%
same,Atherogenic index Median CFB - 24 weeks results,[1],0.10 mmol/L
same,Atherogenic index Mean CFB - 24 weeks results,[2],-0.01 mmol/L
same,Atherogenic index Mean percentage CFB - 24 weeks results,[2],0.75%
same,Atherogenic index Median CFB - 24 weeks results,[2],0.00 mmol/L
same,Atherogenic index Mean CFB - 24 weeks results,[3],-0.02 mmol/L
same,Atherogenic index Mean percentage CFB - 24 weeks results,[3],0.43%
same,Atherogenic index Median CFB - 24 weeks results,[3],0.00 mmol/L
same,Atherogenic index Mean CFB - 24 weeks results,[4],-0.05 mmol/L
same,Atherogenic index Mean percentage CFB - 24 weeks results,[4],−0.86%
same,Atherogenic index Median CFB - 24 weeks results,[4],-0.10 mmol/L
same,Atherogenic index Mean CFB - 24 weeks results,[5],0.05 mmol/L
same,Atherogenic index Mean percentage CFB - 24 weeks results,[5],2.68%
same,Atherogenic index Median CFB - 24 weeks results,[5],0.00 mmol/L
same,Atherogenic index Mean CFB - 24 weeks results,[6],-0.03 mmol/L
same,Atherogenic index Mean percentage CFB - 24 weeks results,[6],0.32%
same,Atherogenic index Median CFB - 24 weeks results,[6],0.00 mmol/L
same,Atherogenic index Mean CFB - 24 weeks results,[7],0.09 mmol/L
same,Atherogenic index Mean percentage CFB - 24 weeks results,[7],4.42%
same,Atherogenic index Median CFB - 24 weeks results,[7],0.00 mmol/L
same,Atherogenic index Mean CFB - 24 weeks results,[8],0.02 mmol/L
same,Atherogenic index Mean percentage CFB - 24 weeks results,[8],2.01%
same,Atherogenic index Median CFB - 24 weeks results,[8],0.00 mmol/L
same,Atherogenic index Mean CFB - 24 weeks results,[9],-0.06 mmol/L
same,Atherogenic index Mean percentage CFB - 24 weeks results,[9],−0.30%
same,Atherogenic index Median CFB - 24 weeks results,[9],0.00 mmol/L
same,Atherogenic index Mean CFB - 24 weeks results,[10],-0.21 mmol/L
same,Atherogenic index Mean percentage CFB - 24 weeks results,[10],−4.55%
same,Atherogenic index Median CFB - 24 weeks results,[10],-0.10 mmol/L
same,Atherogenic index Mean CFB - 24 weeks results,[11],-0.14 mmol/L
same,Atherogenic index Mean percentage CFB - 24 weeks results,[11],−2.75%
same,Atherogenic index Median CFB - 24 weeks results,[11],-0.10 mmol/L
same,Atherogenic index Mean CFB - 24 weeks results,[12],-0.18 mmol/L
same,Atherogenic index Mean percentage CFB - 24 weeks results,[12],−3.44%
same,Atherogenic index Median CFB - 24 weeks results,[12],-0.10 mmol/L
same,Atherogenic index Mean CFB - 24 weeks results,[13],-0.07 mmol/L
same,Atherogenic index Mean percentage CFB - 24 weeks results,[13],−0.87%
same,Atherogenic index Median CFB - 24 weeks results,[13],0.00 mmol/L
same,Atherogenic index Mean CFB - 24 weeks results,[14],-0.13 mmol/L
same,Atherogenic index Mean percentage CFB - 24 weeks results,[14],−2.57%
same,Atherogenic index Median CFB - 24 weeks results,[14],-0.10 mmol/L
same,Atherogenic index Mean CFB - 24 weeks results,[15],-0.11 mmol/L
same,Atherogenic index Median CFB - 24 weeks results,[15],-0.10 mmol/L
same,Atherogenic index Mean CFB - 24 weeks results,[16],-0.04 mmol/L
same,Atherogenic index Mean percentage CFB - 24 weeks results,[16],0.23%
same,Atherogenic index Median CFB - 24 weeks results,[16],0.00 mmol/L
same,Atherogenic index Mean CFB - 24 weeks results,[17],-0.02 mmol/L
same,Atherogenic index Mean percentage CFB - 24 weeks results,[17],−0.40%
same,Atherogenic index Median CFB - 24 weeks results,[17],-0.10 mmol/L
same,Atherogenic index Mean CFB - 24 weeks results,[18],-0.15 mmol/L
same,Atherogenic index Mean percentage CFB - 24 weeks results,[18],−3.84%
same,Atherogenic index Median CFB - 24 weeks results,[18],-0.20 mmol/L
same,Atherogenic index Mean CFB - 24 weeks results,[19],-0.11 mmol/L
same,Atherogenic index Mean percentage CFB - 24 weeks results,[19],−2.94%
same,Atherogenic index Median CFB - 24 weeks results,[19],-0.10 mmol/L
same,Atherogenic index Mean CFB - 24 weeks results,[20],0.00 mmol/L
same,Atherogenic index Mean percentage CFB - 24 weeks results,[20],0.36%
same,Atherogenic index Median CFB - 24 weeks results,[20],-0.10 mmol/L
same,Atherogenic index Mean CFB - 24 weeks results,[21],0.01 mmol/L
same,Atherogenic index Mean percentage CFB - 24 weeks results,[21],1.11%
same,Atherogenic index Median CFB - 24 weeks results,[21],0.00 mmol/L
same,Atherogenic index Mean CFB - 24 weeks results,[22],-0.01 mmol/L
same,Atherogenic index Mean percentage CFB - 24 weeks results,[22],0.09%
same,Atherogenic index Median CFB - 24 weeks results,[22],0.00 mmol/L
same,Atherogenic index Mean CFB - 24 weeks results,[23],-0.08 mmol/L
same,Atherogenic index Mean percentage CFB - 24 weeks results,[23],−1.32%
same,Atherogenic index Median CFB - 24 weeks results,[23],-0.10 mmol/L
same,Atherogenic index Mean CFB - 24 weeks results,[24],-0.12 mmol/L
same,Atherogenic index Mean percentage CFB - 24 weeks results,[24],−3.08%
same,Atherogenic index Median CFB - 24 weeks results,[24],-0.10 mmol/L
same,Atherogenic index Mean CFB,"50 mg q.d., week 1",-0.02 mmol/L
same,Atherogenic index Mean percentage CFB - 12 weeks results,"50 mg q.d., week 1",0%
